Laboratory results taken from paper PMC12367838, “Relevance of kinetic interactions and co-formulants for plant protection product liver toxicity in vitro” (Archives of Toxicology, 2025).

Experiments:
HepaRG cells = test: Total RNA sequencing, differential gene expression
CYP2C9 = biological target: T1, CYP2C9 (Homo sapiens, UniProt P11712); test: P450-Glo screening system, CYP inhibition; assay type: biochemical; details: recombinant human CYP, luciferin-H
T1 construct: purchased Promega
Source text: (§1) The P450-Glo™ screening systems (Promega; Madison, Wisconsin, USA) were used in this study to explore the inhibitory properties of MDP on the major CYP isoforms involved in xenobiotic metabolism (CYP1A2, CYP2C9, CYP2C19, CYP2D6, and CYP3A4). HepaRG cells were not utilized in this assay to avoid potential cross reactivity since all CYP enzymes are expressed in this cell line. Therefore, this inhibition study relied on recombinant human CYP enzymes integrated in membrane preparation. The principle of the assay is based on the conversion of a luminogenic substrate (100 µM luciferin-ME for CYP1A2, 100 µM luciferin-H for CYP2C9, 50 µM luciferin-H EGE for CYP2C19, 30 µM luciferin-ME EGE for CYP2D6, and 100 µM luciferin-PPXE for CYP3A4) to luciferin by the respective enzyme. The assay was conducted according to the instructions of the supplier. Briefly, eight non-cytotoxic concentrations of MDP or a CYP selective inhibitor were preincubated for 10 min at 37 °C together with the luminogenic substrate, potassium phosphate buffer, and luciferin-free water, and the test compounds were added to white 96-well Costar® plates. After the preincubation, 25 µL of NADPH regeneration system (2.6 mM NADP + , 6.6 mM glucose-6-phosphate, 6.6 mM MgCl2, and 0.8 U/mL glucose-6-phosphate dehydrogenase) was added to each well to initiate CYP reactions. The plates were briefly shaken and taped before they were incubated at 37 °C for 10–30 min depending on the CYP enzyme under investigation. Luminescence of the luciferin product was initiated by adding 50 µL of the luciferin detection reagent. Subsequently, the plates were briefly shaken and then incubated for 20 min at room temperature in order to stabilize the luminescent signal. The luminescence was measured on the Infinite M200 PRO plate reader (Tecan; Männedorf, Switzerland). The measurements were corrected by subtracting the minus P450 control signals from each measurement and represented as changes in luminescence signals (ΔRLU). The ΔRLU values of MDP were compared with the ΔRLU values of the untreated samples and represented as relative changes in luminescence in relation to the control (%). Three independent experiments with three technical replicates were conducted (n = 3). Means and standard deviations for each treatment were calculated before calculating the IC50 values of MDP for each CYP enzyme.
(§2) A linear mixed-effects ANOVA (α = 0.05) described by Pinheiro and Bates ([2000]) followed by a post-hoc Dunnett test for multiple comparisons of treatment groups versus the control was used for statistical analysis of data from cytotoxicity assay, AdipoRed assay, CYP450 inhibition assay as well as mixture effects. R studio (ver. 4.4.1) was used to determine the effective concentration at relative triglyceride induction fold of 1.5 for each test compound.

CYP2C19 = biological target: T2, CYP2C19 (Homo sapiens, UniProt P33261); test: P450-Glo screening system, CYP inhibition; assay type: biochemical; details: recombinant human CYP, luciferin-H EGE
T2 construct: purchased Promega
T2 sequence (P33261 whole entry): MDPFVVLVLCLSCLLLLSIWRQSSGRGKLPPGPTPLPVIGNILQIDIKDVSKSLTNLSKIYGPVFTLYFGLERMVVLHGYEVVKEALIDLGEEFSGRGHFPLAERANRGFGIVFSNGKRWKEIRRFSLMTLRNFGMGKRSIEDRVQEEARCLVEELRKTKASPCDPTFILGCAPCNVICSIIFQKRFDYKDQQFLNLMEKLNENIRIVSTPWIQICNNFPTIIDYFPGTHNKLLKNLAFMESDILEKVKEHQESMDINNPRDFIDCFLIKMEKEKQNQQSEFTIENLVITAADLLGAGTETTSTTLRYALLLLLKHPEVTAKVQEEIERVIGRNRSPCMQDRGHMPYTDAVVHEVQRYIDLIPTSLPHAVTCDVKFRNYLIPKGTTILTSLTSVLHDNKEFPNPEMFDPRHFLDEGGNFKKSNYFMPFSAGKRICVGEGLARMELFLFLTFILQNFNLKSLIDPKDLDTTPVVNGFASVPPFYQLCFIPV
Source text: as §1, §2

[1] = high sub-cytotoxic concentration, 24 h, vs solvent control
[2] = low sub-cytotoxic concentration, 24 h, vs solvent control

T1 sequence (P11712 whole entry): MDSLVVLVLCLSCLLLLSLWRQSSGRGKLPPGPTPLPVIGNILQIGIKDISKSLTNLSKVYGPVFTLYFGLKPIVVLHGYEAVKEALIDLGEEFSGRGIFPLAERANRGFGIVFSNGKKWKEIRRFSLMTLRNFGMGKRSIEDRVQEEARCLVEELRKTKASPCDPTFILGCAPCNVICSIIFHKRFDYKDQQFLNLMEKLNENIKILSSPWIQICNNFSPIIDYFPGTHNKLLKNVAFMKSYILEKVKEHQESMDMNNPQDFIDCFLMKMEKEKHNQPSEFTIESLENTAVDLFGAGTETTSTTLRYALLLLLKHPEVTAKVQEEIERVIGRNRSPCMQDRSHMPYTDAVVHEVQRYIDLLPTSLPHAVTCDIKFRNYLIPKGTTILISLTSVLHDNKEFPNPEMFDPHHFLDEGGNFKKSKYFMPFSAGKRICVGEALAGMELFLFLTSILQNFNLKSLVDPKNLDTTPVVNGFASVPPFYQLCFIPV

C#CCOc1ccc(CCNC(=O)C(OCC#C)c2ccc(Cl)cc2)cc1OC (stereo not shown) [MDP, mandipropamid]
Fold change ACOX1 (HepaRG cells; gene ACOX1, MDP_HIGH): 0.9326
log2FoldChange ACOX1 (HepaRG cells; gene ACOX1, MDP_HIGH): -0.1007
Fold change AHR (HepaRG cells; gene AHR, MDP_HIGH): 1.696
log2FoldChange AHR (HepaRG cells; gene AHR, MDP_HIGH): 0.7618
Fold change CD36 (HepaRG cells; gene CD36, MDP_HIGH): 1.4443
log2FoldChange CD36 (HepaRG cells; gene CD36, MDP_HIGH): 0.5304
Fold change CYP1A1 (HepaRG cells; gene CYP1A1, MDP_HIGH): 10.9554
log2FoldChange CYP1A1 (HepaRG cells; gene CYP1A1, MDP_HIGH): 3.454
Fold change CYP1A2 (HepaRG cells; gene CYP1A2, MDP_HIGH): 0.4656
log2FoldChange CYP1A2 (HepaRG cells; gene CYP1A2, MDP_HIGH): -1.103
Fold change CYP2B6 (HepaRG cells; gene CYP2B6, MDP_HIGH): 1.009
log2FoldChange CYP2B6 (HepaRG cells; gene CYP2B6, MDP_HIGH): 0.01275
Fold change CYP2C9 (HepaRG cells; gene CYP2C9, MDP_HIGH): 0.1687
log2FoldChange CYP2C9 (HepaRG cells; gene CYP2C9, MDP_HIGH): -2.568
Fold change CYP2C19 (HepaRG cells; gene CYP2C19, MDP_HIGH): 0.1531
log2FoldChange CYP2C19 (HepaRG cells; gene CYP2C19, MDP_HIGH): -2.707
Fold change CYP2D6 (HepaRG cells; gene CYP2D6, MDP_HIGH): 0.9227
log2FoldChange CYP2D6 (HepaRG cells; gene CYP2D6, MDP_HIGH): -0.116
Fold change CYP3A4 (HepaRG cells; gene CYP3A4, MDP_HIGH): 0.7016
log2FoldChange CYP3A4 (HepaRG cells; gene CYP3A4, MDP_HIGH): -0.5112
Fold change FASN (HepaRG cells; gene FASN, MDP_HIGH): 1.131
log2FoldChange FASN (HepaRG cells; gene FASN, MDP_HIGH): 0.178
Fold change INSIG1 (HepaRG cells; gene INSIG1, MDP_HIGH): 1.034
log2FoldChange INSIG1 (HepaRG cells; gene INSIG1, MDP_HIGH): 0.04872
Fold change MLXIPL (HepaRG cells; gene MLXIPL, MDP_HIGH): 0.6622
log2FoldChange MLXIPL (HepaRG cells; gene MLXIPL, MDP_HIGH): -0.5947
Fold change NR1H2 (HepaRG cells; gene NR1H2, MDP_HIGH): 1.431
log2FoldChange NR1H2 (HepaRG cells; gene NR1H2, MDP_HIGH): 0.5168
Fold change NR1H4 (HepaRG cells; gene NR1H4, MDP_HIGH): 0.8415
log2FoldChange NR1H4 (HepaRG cells; gene NR1H4, MDP_HIGH): -0.249
Fold change NR1I2 (HepaRG cells; gene NR1I2, MDP_HIGH): 0.5918
log2FoldChange NR1I2 (HepaRG cells; gene NR1I2, MDP_HIGH): -0.7568
Fold change NR1I3 (HepaRG cells; gene NR1I3, MDP_HIGH): 0.06449
log2FoldChange NR1I3 (HepaRG cells; gene NR1I3, MDP_HIGH): -3.955
Fold change NR3C1 (HepaRG cells; gene NR3C1, MDP_HIGH): 1.123
log2FoldChange NR3C1 (HepaRG cells; gene NR3C1, MDP_HIGH): 0.1669
Fold change PPARA (HepaRG cells; gene PPARA, MDP_HIGH): 0.7275
log2FoldChange PPARA (HepaRG cells; gene PPARA, MDP_HIGH): -0.4589
Fold change PPARG (HepaRG cells; gene PPARG, MDP_HIGH): 4.604
log2FoldChange PPARG (HepaRG cells; gene PPARG, MDP_HIGH): 2.203
Fold change RARA (HepaRG cells; gene RARA, MDP_HIGH): 1.153
log2FoldChange RARA (HepaRG cells; gene RARA, MDP_HIGH): 0.2052
Fold change RARB (HepaRG cells; gene RARB, MDP_HIGH): 2.749
log2FoldChange RARB (HepaRG cells; gene RARB, MDP_HIGH): 1.459
Fold change RARG (HepaRG cells; gene RARG, MDP_HIGH): 1.386
log2FoldChange RARG (HepaRG cells; gene RARG, MDP_HIGH): 0.4711
Fold change SCD (HepaRG cells; gene SCD, MDP_HIGH): 0.8254
log2FoldChange SCD (HepaRG cells; gene SCD, MDP_HIGH): -0.2768
Fold change SREBF1 (HepaRG cells; gene SREBF1, MDP_HIGH): 0.451
log2FoldChange SREBF1 (HepaRG cells; gene SREBF1, MDP_HIGH): -1.149
CYP1A1 Fold change (HepaRG cells; [1]): ≈ 11
NR1I3 Fold change (HepaRG cells; [1]): ≈ 0.06
SREBF1 Fold change (HepaRG cells; [1]): ≈ 0.45
ACOX1 Fold change (HepaRG cells; [2]): 1.035
ACOX1 log2FoldChange (HepaRG cells; [2]): 0.04967
AHR Fold change (HepaRG cells; [2]): 1.296
AHR log2FoldChange (HepaRG cells; [2]): 0.3736
CD36 Fold change (HepaRG cells; [2]): 1.929
CD36 log2FoldChange (HepaRG cells; [2]): 0.9479
CYP1A1 Fold change (HepaRG cells; [2]): 5.261
CYP1A1 log2FoldChange (HepaRG cells; [2]): 2.395
CYP1A2 Fold change (HepaRG cells; [2]): 0.6714
CYP1A2 log2FoldChange (HepaRG cells; [2]): -0.5747
CYP2B6 Fold change (HepaRG cells; [2]): 1.3371
CYP2B6 log2FoldChange (HepaRG cells; [2]): 0.4191
CYP2C9 Fold change (HepaRG cells; [2]): 0.329
CYP2C9 log2FoldChange (HepaRG cells; [2]): -1.6038
CYP2C19 Fold change (HepaRG cells; [2]): 0.4073
CYP2C19 log2FoldChange (HepaRG cells; [2]): -1.2958
CYP2D6 Fold change (HepaRG cells; [2]): 0.5576
CYP2D6 log2FoldChange (HepaRG cells; [2]): -0.8427
CYP3A4 log2FoldChange (HepaRG cells; [2]): 1.049
FASN Fold change (HepaRG cells; [2]): 1.765
FASN log2FoldChange (HepaRG cells; [2]): 0.8201
INSIG1 Fold change (HepaRG cells; [2]): 1.785
INSIG1 log2FoldChange (HepaRG cells; [2]): 0.8359
MLXIPL Fold change (HepaRG cells; [2]): 0.9069
MLXIPL log2FoldChange (HepaRG cells; [2]): -0.1409
NR1H2 Fold change (HepaRG cells; [2]): 1.22
NR1H2 log2FoldChange (HepaRG cells; [2]): 0.2868
NR1H4 Fold change (HepaRG cells; [2]): 1.127
NR1H4 log2FoldChange (HepaRG cells; [2]): 0.1725
NR1I2 Fold change (HepaRG cells; [2]): 0.6165
NR1I2 log2FoldChange (HepaRG cells; [2]): -0.6979
NR1I3 Fold change (HepaRG cells; [2]): 0.09752
NR1I3 log2FoldChange (HepaRG cells; [2]): -3.358
NR3C1 Fold change (HepaRG cells; [2]): 1.06
NR3C1 log2FoldChange (HepaRG cells; [2]): 0.08356
PPARA Fold change (HepaRG cells; [2]): 0.907
PPARA log2FoldChange (HepaRG cells; [2]): -0.1409
PPARG Fold change (HepaRG cells; [2]): 2.875
PPARG log2FoldChange (HepaRG cells; [2]): 1.5234
RARA Fold change (HepaRG cells; [2]): 1.12
RARA log2FoldChange (HepaRG cells; [2]): 0.164
RARB Fold change (HepaRG cells; [2]): 3.072
RARB log2FoldChange (HepaRG cells; [2]): 1.619
RARG Fold change (HepaRG cells; [2]): 1.553
RARG log2FoldChange (HepaRG cells; [2]): 0.6348
SCD Fold change (HepaRG cells; [2]): 1.519
SCD log2FoldChange (HepaRG cells; [2]): 0.6028
SREBF1 Fold change (HepaRG cells; [2]): 0.7245
SREBF1 log2FoldChange (HepaRG cells; [2]): -0.4649
IC50 (CYP2C9): 1180 nM
IC50 CYP2C9 (CYP2C9): 0.488 µg/mL
IC50 (CYP2C19): 824 nM
IC50 CYP2C19 (CYP2C19): 0.340 µg/mL
